Results as given in patent publication US7348427B2, “Antipathogenic benzamide compounds” (Genesoft Pharmaceuticals, Inc., priority 2001, dated 2008).
Converted amounts (≈) assume the structure as drawn.

What was measured:
[1] = tested on: Bacillus cereus (ATCC 11778); test: MIC, NCCLS broth microdilution assay; format: cell-based; settings: A = B. cereus ATCC 11778
Summary of the method: (§1)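 NCCLS-standard broth microdilution gives the MIC values here. The antifungal determination used a clinical microbiology manual method instead.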

[2] = tested on: Staphylococcus aureus (ATCC 13709, a methicillin sensitive strain (MSSA)); test: MIC, NCCLS broth microdilution assay; format: cell-based; settings: E = S. aureus ATCC 13709
Summary of the method: as §1

[3] = tested on: Staphylococcus aureus (ATCC 27660, a methicillin resistant strain (MRSA)); test: MIC, NCCLS broth microdilution assay; format: cell-based; settings: F = S. aureus ATCC 27660
Summary of the method: as §1

[4] = tested on: Candida albicans (ATCC 38247); test: Antifungal MIC assay; format: cell-based; settings: B = C. albicans ATCC 38247
Summary of the method: as §1

E. faecalis ATCC 29212 = test: MIC, NCCLS broth microdilution assay; format: cell-based, Enterococcus faecalis; settings: C = E. faecalis ATCC 29212
Summary of the method: (§2)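 Broth microdilution per NCCLS M7-A4 (1997) guidelines; MIC recorded as minimal inhibitory concentration.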

S. pneumoniae ATCC 49619 = test: MIC, NCCLS broth microdilution assay; format: cell-based, Streptococcus pneumoniae; settings: H = S. pneumoniae ATCC 49619
Summary of the method: as §2

[5] = Staphylococcus aureus, read-out: Minimum Inhibitory Concentration (MIC)

Row | MIC ([1]; Bacillus cereus, ATCC11778, read-out: Minimum Inhibitory Concentration (MIC)) [µg/mL] | MIC [2, 5] [µg/mL] | MIC [3, 5] [µg/mL] | MIC ([4]; Candida albicans, ATCC38247, read-out: Minimum Inhibitory Concentration (MIC)) [µg/mL] | MIC (E. faecalis ATCC 29212; Enterococcus faecalis, ATCC29212, read-out: Minimum Inhibitory Concentration (MIC)) [µg/mL] | MIC (S. pneumoniae ATCC 49619; Streptococcus pneumoniae, ATCC49619, read-out: Minimum Inhibitory Concentration (MIC)) [µg/mL] | Structure (SMILES) | Minimum Inhibitory Concentration (MIC) [1] | Minimum Inhibitory Concentration (MIC) [2] | Minimum Inhibitory Concentration (MIC) [3] | Minimum Inhibitory Concentration (MIC) [4] | Minimum Inhibitory Concentration (MIC) (E. faecalis ATCC 29212) | Minimum Inhibitory Concentration (MIC) (S. pneumoniae ATCC 49619)
1 |  |  |  |  |  |  | Cn1cc(NC(=O)c2cc(NC(=O)c3cc(NC(=O)c4ccc(F)cc4NCCCNC4CCCCC4)cn3C)cn2C)cc1C(N)=O [Compound B-51] | ++ (++ = 4 < MIC < 12) | ++ (++ = 4 < MIC < 12) | + (+ = 12 ≦ MIC ≦ 32) | >32 µg/mL | >32 µg/mL | + (+ = 12 ≦ MIC ≦ 32)
2 |  |  |  |  |  |  | Cn1cc(NC(=O)c2cc(NC(=O)c3ccc(Cl)c(Cl)c3)cn2C)cc1C(=O)NCCN1CCOCC1 [Compound B-54] | ++ (++ = 4 < MIC < 12) | +++ (+++ = MIC ≦ 4) | ++ (++ = 4 < MIC < 12) | >32 µg/mL | ++ (++ = 4 < MIC < 12) | +++ (+++ = MIC ≦ 4)
3 |  |  |  |  |  |  | Cn1cc(NC(=O)c2cc(NC(=O)c3cc(NC(=O)c4ccc(Cl)cc4NCCCNC4CCCCC4)cn3C)cn2C)cc1C(N)=O [Compound B-63] | + (+ = 12 ≦ MIC ≦ 32) | +++ (+++ = MIC ≦ 4) | +++ (+++ = MIC ≦ 4) | >32 µg/mL | >32 µg/mL | +++ (+++ = MIC ≦ 4)
4 |  |  |  |  |  |  | Cn1cc(NC(=O)c2cc(NC(=O)c3cc(NC(=O)c4ccc(Cl)cc4NCCN4CCCCC4)cn3C)cn2C)cc1C(N)=O [Compound B-65] | ++ (++ = 4 < MIC < 12) | + (+ = 12 ≦ MIC ≦ 32) | ++ (++ = 4 < MIC < 12) | >32 µg/mL | + (+ = 12 ≦ MIC ≦ 32) | ++ (++ = 4 < MIC < 12)
5 |  |  |  |  |  |  | Cn1cc(NC(=O)c2cc(NC(=O)c3ccc(C#N)cc3)cn2C)cc1C(=O)NCCN1CCOCC1 [Compound B-69] | + (+ = 12 ≦ MIC ≦ 32) | + (+ = 12 ≦ MIC ≦ 32) | >32 µg/mL | >32 µg/mL | + (+ = 12 ≦ MIC ≦ 32) | +++ (+++ = MIC ≦ 4)
6 |  |  |  |  |  |  | Cn1cc(NC(=O)c2cc(NC(=O)c3cc(NC(=O)c4ccc(F)cc4F)cn3C)cn2C)cc1C(=O)NCCc1ccccn1 [Compound B-82] | +++ (+++ = MIC ≦ 4) | +++ (+++ = MIC ≦ 4) | +++ (+++ = MIC ≦ 4) | >32 µg/mL | +++ (+++ = MIC ≦ 4) | +++ (+++ = MIC ≦ 4)
7 |  |  |  |  |  |  | Cn1cc(NC(=O)c2cc(NC(=O)c3cc(NC(=O)c4ccc(Br)cc4F)cn3C)cn2C)cc1C(=O)NCCN1CCOCC1 [Compound B-83] | +++ (+++ = MIC ≦ 4) | +++ (+++ = MIC ≦ 4) | +++ (+++ = MIC ≦ 4) | >32 µg/mL | +++ (+++ = MIC ≦ 4) | +++ (+++ = MIC ≦ 4)
8 |  |  |  |  |  |  | Cn1cc(NC(=O)c2cc(NC(=O)c3cc(NC(=O)c4ccc(OC(F)F)cc4)cn3C)cn2C)cc1C(=O)NCCN1CCCC1 [Compound B-84] | +++ (+++ = MIC ≦ 4) | +++ (+++ = MIC ≦ 4) | +++ (+++ = MIC ≦ 4) | + (+ = 12 ≦ MIC ≦ 32) | +++ (+++ = MIC ≦ 4) | +++ (+++ = MIC ≦ 4)
9 |  |  |  |  |  |  | Cn1cc(NC(=O)c2cc(NC(=O)c3cc(NC(=O)c4ccc(OC(F)F)cc4)cn3C)cn2C)cc1C(=O)NCCN1CCCCC1 [Compound B-85] | +++ (+++ = MIC ≦ 4) | +++ (+++ = MIC ≦ 4) | +++ (+++ = MIC ≦ 4) | + (+ = 12 ≦ MIC ≦ 32) | +++ (+++ = MIC ≦ 4) | +++ (+++ = MIC ≦ 4)
10 |  |  |  |  |  |  | Cn1cc(NC(=O)c2cc(NC(=O)c3cc(NC(=O)c4ccc(OC(F)F)cc4)cn3C)cn2C)cc1C(=O)NCCN1CCSCC1 [Compound B-86] | +++ (+++ = MIC ≦ 4) | +++ (+++ = MIC ≦ 4) | +++ (+++ = MIC ≦ 4) | >32 µg/mL | +++ (+++ = MIC ≦ 4) | +++ (+++ = MIC ≦ 4)
11 | 12 to 32 (≈ 19.3 to 51.4 µM) | 4 to 12 (≈ 6.42 to 19.3 µM) | 12 to 32 (≈ 19.3 to 51.4 µM) | > 32 | 4 to 12 (≈ 6.42 to 19.3 µM) | ≤ 4 | Cn1cc(NC(=O)c2ccc(F)cc2F)cc1C(=O)Nc1cc(C(=O)Nc2c[nH]c(C(=O)NCCN3CCOCC3)c2)n(C)c1 [Compound C-1] |  |  |  |  |  | 
12 |  |  |  |  |  |  | Cn1cc(NC(=O)c2cc(NC(=O)c3cc(NC(=O)c4ccc(F)cc4F)cn3C)c[nH]2)cc1C(=O)NCCN1CCOCC1 [Compound C-2] | ++ (++ = 4 < MIC < 12) | ++ (++ = 4 < MIC < 12) | ++ (++ = 4 < MIC < 12) | >32 µg/mL | ++ (++ = 4 < MIC < 12) | +++ (+++ = MIC ≦ 4)
13 |  |  |  |  |  |  | Cn1cc(NC(=O)c2cc(NC(=O)c3cc(NC(=O)c4ccc(F)cc4F)c[nH]3)c[nH]2)cc1C(=O)NCCN1CCOCC1 [Compound C-3] | + (+ = 12 ≦ MIC ≦ 32) | + (+ = 12 ≦ MIC ≦ 32) | + (+ = 12 ≦ MIC ≦ 32) | >32 µg/mL | ++ (++ = 4 < MIC < 12) | +++ (+++ = MIC ≦ 4)
14 |  |  |  |  |  |  | Cn1cc(NC(=O)c2cc(NC(=O)c3cc(NC(=O)c4ccc(F)cc4F)cn3C)cn2CCCO)cc1C(=O)NCCN1CCOCC1 [Compound C-4] | + (+ = 12 ≦ MIC ≦ 32) | + (+ = 12 ≦ MIC ≦ 32) | + (+ = 12 ≦ MIC ≦ 32) | >32 µg/mL | + (+ = 12 ≦ MIC ≦ 32) | +++ (+++ = MIC ≦ 4)
15 |  |  |  |  |  |  | Cn1cc(NC(=O)c2cc(NC(=O)c3cc(NC(=O)c4ccc(F)cc4F)c[nH]3)cn2CCCO)cc1C(=O)NCCN1CCOCC1 [Compound C-5] | + (+ = 12 ≦ MIC ≦ 32) | + (+ = 12 ≦ MIC ≦ 32) | + (+ = 12 ≦ MIC ≦ 32) | >32 µg/mL | + (+ = 12 ≦ MIC ≦ 32) | +++ (+++ = MIC ≦ 4)
16 |  |  |  |  |  |  | Cn1cc(NC(=O)c2cc(NC(=O)c3cc(NC(=O)c4ccc(F)cc4F)cn3CCCO)cn2C)cc1C(=O)NCCN1CCOCC1 [Compound C-6] | + (+ = 12 ≦ MIC ≦ 32) | + (+ = 12 ≦ MIC ≦ 32) | + (+ = 12 ≦ MIC ≦ 32) | >32 µg/mL | + (+ = 12 ≦ MIC ≦ 32) | +++ (+++ = MIC ≦ 4)
17 |  |  |  |  |  |  | COCn1cc(NC(=O)c2ccc(F)cc2F)cc1C(=O)Nc1cc(C(=O)Nc2cc(C(=O)NCCN3CCOCC3)n(C)c2)n(C)c1 [Compound C-7] | + (+ = 12 ≦ MIC ≦ 32) | ++ (++ = 4 < MIC < 12) | + (+ = 12 ≦ MIC ≦ 32) | >32 µg/mL | + (+ = 12 ≦ MIC ≦ 32) | +++ (+++ = MIC ≦ 4)
18 |  |  |  |  |  |  | Cn1cc(NC(=O)c2cc(NC(=O)c3ccc(Cl)cc3F)c[nH]2)cc1C(=O)Nc1c[nH]c(C(=O)NCCN2CCOCC2)c1 [Compound C-8] | +++ (+++ = MIC ≦ 4) | +++ (+++ = MIC ≦ 4) | +++ (+++ = MIC ≦ 4) | +++ (+++ = MIC ≦ 4) | +++ (+++ = MIC ≦ 4) | +++ (+++ = MIC ≦ 4)
19 |  |  |  |  |  |  | Cn1cc(NC(=O)c2cc(NC(=O)c3cc(NC(=O)c4ccc(Cl)cc4F)cn3C)c[nH]2)cc1C(=O)NCCN1CCOCC1 [Compound C-10] | +++ (+++ = MIC ≦ 4) | +++ (+++ = MIC ≦ 4) | +++ (+++ = MIC ≦ 4) | + (+ = 12 ≦ MIC ≦ 32) | +++ (+++ = MIC ≦ 4) | +++ (+++ = MIC ≦ 4)
